Source: patent publication US20230158057A1, “COMPOSITIONS AND METHODS FOR THE TREATMENT OF PAIN” (Duke University, priority 2020, published 2023)

Columns and labels:
[1] = system: LLC / LL/2-Luc2 / E0771 bone tumors; assay: Local tumor burden (bioluminescence imaging, thigh circumference ratio); format: in vivo, mouse
Experimental: Culture of LLC cells and measurement of local tumor burden: Murine LLC cells were cultured in high glucose (4.5 g/L) Dulbecco's Modified Eagle Medium (DMEM; ThermoFisher) supplemented with 10% fetal bovine serum (Gibco, ThermoFisher) and 1% Antibiotic-Antimycotic solution containing penicillin, streptomycin, and Amphotericin B (ThermoFisher, 15240062). Cells were cultured in the presence of 5% CO2 at 37° C. Cells were passaged using a 0.05% trypsin digest once they achieved 70% confluency. Prior to in vivo injection, cells were harvested with 0.05% trypsin digestion followed by several washes in PBS. Cell counts were performed using a hemocytometer and diluted to achieve a suspension of 1×10^8 ml-1 cells in PBS. To determine whether i.t. STING agonists altered local tumor burden induced by femoral inoculation with LLC cells, mice were lightly anesthetized with isoflurane at the conclusion of the experiment, followed by measurement of the total circumference of the widest aspect of the thigh, which accurately reflects tumor burden. Ratios were computed between the ipsilateral (LLC-inoculated) and contralateral (tumor-free) legs.
In vivo bioluminescence imaging. RediJect D-Luciferin Ultra was purchased from PerkinElmer (770505). Prior to in vivo imaging, mice were shaved in the region of interest depicted in the figure. Bioluminescence images of LL/2-Luc2 bearing mice were captured with IVIS Lumina III system 15 min after intraperitoneal injection of D-Luciferin (30 mg/kg). The IVIS acquisition control panel was set to following conditions for imaging: Exposure time=auto, Binning=medium, F/Stop=1, Emission Filter=open. The bioluminescence images were analyzed using Living Image software from PerkinElmer.
STING agonists suppress local bone cancer tumor burden and further metastasis. Intratumoral injection of STING agonists has been reported to reduce tumor growth by promoting T cell-mediated antitumor immunity in several preclinical animal studies. It is unknown, however, whether systemic administration of STING agonists can attenuate tumor progression in the bone marrow, which is generally regarded as an overwhelmingly immunosuppressive tumor microenvironment. To answer this question, luciferase-labeled LLC cells (LL/2-LUC2 cell line) were used to establish the metastatic bone cancer model via intrafemoral inoculation, thereby enabling measurement of local tumor burden by in vivo bioluminescent imaging. Mice were treated with vehicle or DMXAA (20 mg/kg, i.p. at d3 and d7), followed by in vivo bioluminescence imaging at d8, d11, and d15. […] To quantify this, we measured the ratio of the maximum thigh circumference (ipsilateral/contralateral), which accurately reflects local tumor volume. […]

CTX-I = assay: Serum CTX-I ELISA; format: in vivo, mouse; conditions: d17
Experimental: ELISA. Mouse high-sensitivity IFN-α ELISA kit (42115-1) and IFN-β ELISA kit (42410-1) were purchased from PBL Assay Science. Mouse CTX-I ELISA kit (AC-06F1) and mouse PINP ELISA kit (AC-33F1) were purchased from Immunodiagnostic Systems. ELISA was performed using culture medium, serum, and bone marrow lysates. Serum was obtained from whole blood that was collected from a submandibular vein via facial vein puncture, coagulated for 30 minutes at room temperature, followed by centrifugation (2,000 ×g for 10 min, 4° C.) and collection of the supernatant (serum). Bone marrow was homogenized in a lysis buffer containing protease inhibitors at 4° C. for 30 minutes. ELISA was conducted in accordance with the manufacturer's instructions. A standard curve was performed for each experiment.

## Cc1ccc2c(=O)c3cccc(CC(=O)O)c3oc2c1C [DMXAA, 2-(5,6-dimethyl-9-oxo-9H-xanthen-4-yl)acetic acid]
[1]; LL/2-Luc2, 20 mg/kg i.p. d3 and d7
  local tumor burden (total flux, bioluminescence): lower local tumor burden at d11 and d15
[1]; d17
  local tumor burden, Batf3^+/+ vs Batf3^−/−: only tumor-bearing Batf3^+/+ mice but not Batf3^−/− mice exhibited a decrease in local tumor burden
  ratio of maximum thigh circumference, WT vs Rag1^−/−: effectively reduced the ratio of maximum thigh circumference only in WT mice but not in Rag1^−/− mice
[1]; day 17, LLC and E0771 models
  ratio of maximum thigh circumference (ipsilateral/contralateral): could reduce the ratio of maximum thigh circumference
CTX-I
  serum CTX-I levels: could effectively reduce CTX-I levels on d17
